# Results: PMC10318822, “Phase 1 dose-escalation study to evaluate the safety, tolerability, pharmacokinetics, and anti-tumor activity of FCN-159 in adults with neurofibromatosis type 1-related unresectable plexiform neurofibromas” (BMC Medicine, 2023)
# Entries after “also recorded” stand apart in the source; their conditions may differ.
# Legend:
# [1] = system: NF1-related PN; assay: Tumor response by MRI volumetric analysis (Response Evaluation in Neurofibromatosis Schwannomatosis criteria); format: in vivo, human; conditions: for Best overall response: Complete response / Best overall response: Disease progression / Best overall response: Not evaluable / Best overall response: Partial response / Best overall response: Stable disease: Investigator assessments
# Text: Primary endpoints of the study were the DLT incidence rate, MTD, and RP2D. Secondary endpoints included other safety assessments, imaging tumor response (complete response [CR], PR, stable disease [SD], or progressive disease [PD]), and PK parameters of FCN-159. Adverse events were graded per CTCAE v5.0.
# All patients underwent a complete medical history, physical examination, Eastern Cooperative Oncology Group (ECOG) assessment, and laboratory analysis of test results. Drug-related TEAEs, serious adverse events (SAEs), TEAEs of grade ≥ 3 toxicity, and TEAEs leading to drug discontinuation were reviewed on an ongoing basis. Efficacy was assessed by radiologic scans and clinical assessment. Tumor assessments per Response Evaluation in Neurofibromatosis Schwannomatosis criteria were performed by investigators using MRI volumetric analysis every 4 cycles within the first 2 years (± 7 days) and every 6 cycles after 2 years (± 14 days) until PD, death, patient's voluntary withdrawal from study treatment, or study termination. MRI sequences of […], T1- and T2-weighted sequences were chosen and the software of Extended Brilliance Workspace, SIGNA Premier and uExceed were used for MRI volumetric analysis. The same software was used for all tumor assessments at baseline and subsequent assessed timepoints of the same patient. Pain was assessed by an 11-point numerical rating scale (NRS-11).
# [2] = system: RAS-mutant tumor cell lines; set-up: method as in doi:10.1158/1538-7445.AM2020-1951; conditions: selected RAS-mutant tumor cell lines; cited from earlier work
# [3] = Plasma pharmacokinetics of FCN-159, non-compartmental analysis; format: in vivo, human; conditions: for AUCtau / CLss/F / Cavg,ss / Cmax,ss / Cmin,ss / ARAUC0-t / ARCmax / AUC0-t / AUC0-∞ / CL/F / Cmax / T1/2 / Vd/F: Geomean; for ARAUC0-t: AUC0-t (steady state) / AUC0-t; for ARCmax: Cmax (steady state) / Cmax; for Tmax: median
# Protocol: In order to study the PK characteristics of FCN-159 in plasma, blood samples were collected pre-dose and 0.5, 1, 2, 3, 4, 6, and 10 h post dose on days 1 and 28 of cycle 1, and pre-dose only on days 2, 8, and 15 of cycle 1 and day 1 of cycle 2. Plasma PK parameters of FCN-159 in each dose group were analyzed with standard non-compartmental PK methods using Phoenix WinNonlin, v8.2. PK parameters included area under the curve (AUC)(0-last), AUC(0-∞), maximum plasma concentration (Cmax), time to maximum plasma concentration (Tmax), half-life (T1/2), oral clearance (CL/F), and volume of distribution (Vd/F) for the single-dose regimen and AUC(0-tau), Cmax, Tmax, minimum steady-state plasma concentration (Css,min), mean steady-state plasma concentration (Css, avg), accumulation ratio for AUC (ARAUC), and apparent oral clearance at steady state (CLss/F) for the multiple dose regimen.
# Data were summarized using descriptive statistics.
# Dose proportionality is assessed by fitting the relationship of the ln-transformed PK parameters (Cmax, AUC) to the ln-transformed dose using a power model loge(Y)=α+βloge(Dose)+ε.
# [4] = system: CYP3A4; set-up: method as in PMID 36755948; conditions: in vitro study; cited from earlier work
# [5] = set-up: method as in PMID 36113242; conditions: patients with NRAS mut+ melanoma; cited from earlier work
# [6] = system: patients with advanced NRAS mut+ melanoma; set-up: method as in PMID 36113242; conditions: cited from earlier work
# [7] = system: patients with NF1-related PN with tumor pain; assay: Pain assessed by 11-point numerical rating scale (NRS-11); format: in vivo, human
# Protocol: Efficacy was assessed by radiologic scans and clinical assessment.
smiles,measurement,setting,value
Cn1c(=O)c(F)c(Nc2ccc(I)cc2F)c2c(=O)n(C3CC3)nc(-c3cccc(NS(=O)(=O)C4CC4)c3)c21 [FCN-159],Best overall response: Complete response,[1]; 4 mg (n = 3),0 n (%)
same,Best overall response: Disease progression,[1]; 4 mg (n = 3),0 n (%)
same,Best overall response: Not evaluable,[1]; 4 mg (n = 3),0 n (%)
same,Best overall response: Partial response,[1]; 4 mg (n = 3),1 (33.3) n (%)
same,Best overall response: Stable disease,[1]; 4 mg (n = 3),2 (66.7) n (%)
same,Best overall response: Complete response,[1]; 6 mg (n = 4),0 n (%)
same,Best overall response: Disease progression,[1]; 6 mg (n = 4),0 n (%)
same,Best overall response: Not evaluable,[1]; 6 mg (n = 4),0 n (%)
same,Best overall response: Partial response,[1]; 6 mg (n = 4),2 (50.0) n (%)
same,Best overall response: Stable disease,[1]; 6 mg (n = 4),2 (50.0) n (%)
same,Best overall response: Complete response,[1]; 8 mg (n = 5),0 n (%)
same,Best overall response: Disease progression,[1]; 8 mg (n = 5),0 n (%)
same,Best overall response: Not evaluable,[1]; 8 mg (n = 5),0 n (%)
same,Best overall response: Partial response,[1]; 8 mg (n = 5),2 (40.0) n (%)
same,Best overall response: Stable disease,[1]; 8 mg (n = 5),3 (60.0) n (%)
same,Best overall response: Complete response,[1]; 12 mg (n = 4),0 n (%)
same,Best overall response: Disease progression,[1]; 12 mg (n = 4),0 n (%)
same,Best overall response: Not evaluable,[1]; 12 mg (n = 4),0 n (%)
same,Best overall response: Partial response,[1]; 12 mg (n = 4),1 (25.0) n (%)
same,Best overall response: Stable disease,[1]; 12 mg (n = 4),3 (75.0) n (%)
same,Patients with progressive disease (PD),[1]; 16 evaluable patients,none experienced PD; also recorded: zero patients had PD
same,Patients with reduced tumor volume,[1]; 16 patients with at least one post-baseline tumor assessment,100%
same,Best overall response: Complete response,[1]; Total (n = 16),0 n (%)
same,Best overall response: Disease progression,[1]; Total (n = 16),0 n (%)
same,Best overall response: Not evaluable,[1]; Total (n = 16),0 n (%)
same,Best overall response: Partial response,[1]; Total (n = 16),6 (37.5) n (%)
same,Best overall response: Stable disease,[1]; Total (n = 16),10 (62.5) n (%)
same,Largest reduction in tumor volume,[1]; in vivo,84.2%
same,Patients achieving partial responses,[1]; six of 16 evaluable patients,37.5%
same,Cell proliferation,[2],inhibiting cell proliferation
same,Dose proportionality of exposure,"[3]; Cmax and AUCtau at steady state 4–8 mg, PK profile between 4 and 12 mg",approximately linear; also recorded: roughly dose proportional
same,Median Tmax,[3]; across all dosing regimens,1.21 to 2.18 h
same,Mean accumulation ratio of AUC,[3]; from each cohort,1.5–2.0
same,AUCtau,"[3]; multiple dose, 4 mg, N 3",392 ng·h/mL
same,CLss/F,"[3]; multiple dose, 4 mg, N 3",10.2 L/h
same,"Cavg,ss","[3]; multiple dose, 4 mg, N 3",16.3 ng/mL
same,"Cmax,ss","[3]; multiple dose, 4 mg, N 3",45.0 ng/mL
same,"Cmin,ss","[3]; multiple dose, 4 mg, N 3",8.54 ng/mL
same,ARAUC0-t,"[3]; multiple dose, 4 mg, N 3",1.56
same,ARCmax,"[3]; multiple dose, 4 mg, N 3",1.25
same,Tmax,"[3]; multiple dose, 4 mg, N 3",1.92 h
same,AUCtau,"[3]; multiple dose, 6 mg, N 4",532 ng·h/mL
same,CLss/F,"[3]; multiple dose, 6 mg, N 4",11.3 L/h
same,"Cavg,ss","[3]; multiple dose, 6 mg, N 4",22.2 ng/mL
same,"Cmax,ss","[3]; multiple dose, 6 mg, N 4",52.2 ng/mL
same,"Cmin,ss","[3]; multiple dose, 6 mg, N 4",12.2 ng/mL
same,ARAUC0-t,"[3]; multiple dose, 6 mg, N 4",2.03
same,ARCmax,"[3]; multiple dose, 6 mg, N 4",1.37
same,Tmax,"[3]; multiple dose, 6 mg, N 4",1.24 h
same,AUCtau,"[3]; multiple dose, 8 mg, N 7",723 ng·h/mL
same,CLss/F,"[3]; multiple dose, 8 mg, N 7",11.1 L/h
same,"Cavg,ss","[3]; multiple dose, 8 mg, N 7",30.1 ng/mL
same,"Cmax,ss","[3]; multiple dose, 8 mg, N 7",82.5 ng/mL
same,"Cmin,ss","[3]; multiple dose, 8 mg, N 7",15.4 ng/mL
same,ARAUC0-t,"[3]; multiple dose, 8 mg, N 7",1.75
same,ARCmax,"[3]; multiple dose, 8 mg, N 7",1.36
same,Tmax,"[3]; multiple dose, 8 mg, N 7",1.50 h
same,AUC0-t,"[3]; single dose, 4 mg, N 3",250 ng·h/mL
same,AUC0-∞,"[3]; single dose, 4 mg, N 3",370 ng·h/mL
same,CL/F,"[3]; single dose, 4 mg, N 3",10.8 L/h
same,Cmax,"[3]; single dose, 4 mg, N 3",36.0 ng/mL
same,T1/2,"[3]; single dose, 4 mg, N 3",16.2 h
same,Vd/F,"[3]; single dose, 4 mg, N 3",253 L
same,Tmax,"[3]; single dose, 4 mg, N 3",1.43 h
same,AUC0-t,"[3]; single dose, 6 mg, N 4",262 ng·h/mL
same,AUC0-∞,"[3]; single dose, 6 mg, N 4",388 ng·h/mL
same,CL/F,"[3]; single dose, 6 mg, N 4",15.4 L/h
same,Cmax,"[3]; single dose, 6 mg, N 4",38.1 ng/mL
same,T1/2,"[3]; single dose, 6 mg, N 4",11.4 h
same,Vd/F,"[3]; single dose, 6 mg, N 4",254 L
same,Tmax,"[3]; single dose, 6 mg, N 4",1.48 h
same,AUC0-t,"[3]; single dose, 8 mg, N 8",453 ng·h/mL
same,AUC0-∞,"[3]; single dose, 8 mg, N 8",661 ng·h/mL
same,CL/F,"[3]; single dose, 8 mg, N 8",12.1 L/h
same,Cmax,"[3]; single dose, 8 mg, N 8",64.2 ng/mL
same,T1/2,"[3]; single dose, 8 mg, N 8",15.4 h
same,Vd/F,"[3]; single dose, 8 mg, N 8",269 L
same,Tmax,"[3]; single dose, 8 mg, N 8",1.21 h
same,AUC0-t,"[3]; single dose, 12 mg, N 4",1050 ng·h/mL
same,AUC0-∞,"[3]; single dose, 12 mg, N 4",1330 ng·h/mL
same,CL/F,"[3]; single dose, 12 mg, N 4",9.03 L/h
same,Cmax,"[3]; single dose, 12 mg, N 4",147 ng/mL
same,T1/2,"[3]; single dose, 12 mg, N 4",11.7 h
same,Vd/F,"[3]; single dose, 12 mg, N 4",153 L
same,Tmax,"[3]; single dose, 12 mg, N 4",2.18 h
same,Metabolism,[4],metabolized primarily by CYP3A4
same,Mean T1/2,[5],32 to 57 h
same,DLTs or SAEs,"[6]; 6 mg or lower, as of October 20, 2020, dose escalated from 0.2 mg to 15 mg",no DLTs or SAEs were observed
same,Tolerability,"[6]; first-in-human study, NRAS mut+ melanoma",well tolerated
same,RP2D,"[6]; phase 1a study, advanced NRAS mut+ melanoma",12 mg
same,Patients with reduction in pain intensity of at least 2 points,"[7]; NRS-11 score ≥ 2 at baseline (16/22), cycles 4 and 5, as of 9 August 2022",72.7%
same,Average decrease in pain scores,"[7]; across all patients, as of 9 August 2022",2.4 points
same,Patients achieving complete pain relief at least once (score reduced to 0),[7]; as of 9 August 2022,13 patients
same,Mean pain score reduction,[7]; dose group of 8 mg,2.5 points
same,Patients achieving meaningful pain improvement,[7]; dose group of 8 mg (15/20),75%
